Source: patent publication US9695155B2, “Herbicidal substituted pyrimidinyloxy benzene compounds” (E. I. DU PONT DE NEMOURS AND COMPANY, priority 2013, dated 2017)

Legend:
[1] = tested on: barnyardgrass; experiment: Test C flooded paddy test; format: in vivo, Echinochloa crus-galli; settings: Flood, scale 0 to 100 (0 no effect, 100 complete control), 13 to 15 days
In short: (§1)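 Greenhouse pots flooded to 3 cm above soil at time of treatment received compound via the water, which stayed at that level.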

[2] = tested on: sandbur; experiment: Test E preemergence; format: in vivo, Cenchrus echinatus; settings: for Sandbur plant response rating: scale 0 to 100 (0 no effect, 100 complete control)
In short: (§2)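 Response was scored visually on a 0-100 scale (100 = complete control) versus controls after 14 to 21 days in the greenhouse. Test chemicals, formulated with surfactant in a non-phytotoxic solvent mixture, had been applied preemergence to seeds in silt loam soil or postemergence to 1- to 4-leaf plants in potting medium.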

[3] = tested on: yellow nutsedge; experiment: Test E preemergence; format: in vivo, Cyperus esculentus; settings: for Nutsedge, Yellow plant response rating: scale 0 to 100 (0 no effect, 100 complete control)
In short: as §2

[4] = tested on: soybean; experiment: Test E preemergence; format: in vivo, Glycine max; settings: for Soybean plant response rating: scale 0 to 100 (0 no effect, 100 complete control)
In short: as §2

[5] = tested on: Italian ryegrass; experiment: Test E preemergence; format: in vivo, Lolium multiflorum; settings: for Ryegrass, Italian plant response rating: scale 0 to 100 (0 no effect, 100 complete control)
In short: as §2

[6] = tested on: waterhemp; experiment: Test E preemergence; format: in vivo, Amaranthus rudis; settings: for Waterhemp plant response rating: scale 0 to 100 (0 no effect, 100 complete control)
In short: as §2

[7] = tested on: velvetleaf; experiment: Test E preemergence; format: in vivo, Abutilon theophrasti; settings: for Velvetleaf plant response rating: scale 0 to 100 (0 no effect, 100 complete control)
In short: as §2

[8] = tested on: green foxtail; experiment: Test E preemergence; format: in vivo, Setaria viridis; settings: for Foxtail, Green plant response rating: scale 0 to 100 (0 no effect, 100 complete control)
In short: as §2

[9] = tested on: wild poinsettia; experiment: Test E preemergence; format: in vivo, Euphorbia heterophylla; settings: for Poinsettia, Wild plant response rating: scale 0 to 100 (0 no effect, 100 complete control)
In short: as §2

[10] = tested on: giant foxtail; experiment: Test E preemergence; format: in vivo, Setaria faberii; settings: for Foxtail, Giant plant response rating: scale 0 to 100 (0 no effect, 100 complete control)
In short: as §2

[11] = tested on: rice; experiment: Test C flooded paddy test; format: in vivo, Oryza sativa; settings: Flood, scale 0 to 100 (0 no effect, 100 complete control), 13 to 15 days
In short: as §1

[12] = tested on: ducksalad; experiment: Test C flooded paddy test; format: in vivo, Heteranthera limosa; settings: Flood, scale 0 to 100 (0 no effect, 100 complete control), 13 to 15 days
In short: as §1

[13] = tested on: Brazilian crabgrass; experiment: Test E preemergence; format: in vivo, Digitaria horizontalis; settings: for Crabgrass, Brazil plant response rating: scale 0 to 100 (0 no effect, 100 complete control)
In short: as §2

[14] = tested on: hairy beggarticks; experiment: Test E preemergence; format: in vivo, Bidens pilosa; settings: preemergence; for Beggarticks plant response rating: scale 0 to 100 (0 no effect, 100 complete control)
In short: as §2

[15] = 125 g ai/ha, scale 0 to 100, 0 no effect, 100 complete control

Fc1cnc(Oc2cccc(C(F)F)c2-n2cc(C(F)(F)F)cn2)nc1 [Compound 164]
5: Poinsettia, Wild plant response rating ([9]; 62 g ai/ha)
70: Plant response rating, Soybean [4, 15]
100: Velvetleaf plant response rating ([7]; 62 g ai/ha) | Plant response rating, Velvetleaf [7, 15] | Plant response rating, Foxtail, Green [8, 15] | Plant response rating, Crabgrass, Brazil [13, 15]
75: Plant response rating, Ducksalad ([12]; 125 g ai/ha) | Crabgrass, Brazil plant response rating ([13]; 62 g ai/ha)
20: Plant response rating, Nutsedge, Yellow [3, 15] | Foxtail, Giant plant response rating ([10]; 31 g ai/ha) | Crabgrass, Brazil plant response rating ([13]; 31 g ai/ha) | Beggarticks plant response rating ([14]; 62 g ai/ha) | Plant response rating, Beggarticks [14, 15]
65: Waterhemp plant response rating ([6]; 31 g ai/ha)
15: Soybean plant response rating ([4]; 62 g ai/ha)
30: Ryegrass, Italian plant response rating ([5]; 62 g ai/ha) | Plant response rating, Poinsettia, Wild [9, 15]
90: Waterhemp plant response rating ([6]; 62 g ai/ha) | Plant response rating, Waterhemp [6, 15]
25: Foxtail, Green plant response rating ([8]; 31 g ai/ha)
50: Velvetleaf plant response rating ([7]; 31 g ai/ha)
95: Plant response rating, Foxtail, Giant [10, 15] | Plant response rating, Ducksalad ([12]; 250 g ai/ha)
0: Plant response rating, Barnyardgrass ([1]; 31 g ai/ha) | Plant response rating, Barnyardgrass ([1]; 62 g ai/ha) | Plant response rating, Barnyardgrass ([1]; 125 g ai/ha) | Plant response rating, Barnyardgrass ([1]; 250 g ai/ha) | Sandbur plant response rating ([2]; 31 g ai/ha) | Sandbur plant response rating ([2]; 62 g ai/ha) | Nutsedge, Yellow plant response rating ([3]; 31 g ai/ha) | Nutsedge, Yellow plant response rating ([3]; 62 g ai/ha) | Soybean plant response rating ([4]; 31 g ai/ha) | Ryegrass, Italian plant response rating ([5]; 31 g ai/ha) | Foxtail, Green plant response rating ([8]; 16 g ai/ha) | Poinsettia, Wild plant response rating ([9]; 31 g ai/ha) | Foxtail, Giant plant response rating ([10]; 16 g ai/ha) | Plant response rating, Rice ([11]; 31 g ai/ha) | Plant response rating, Rice ([11]; 62 g ai/ha) | Plant response rating, Rice ([11]; 125 g ai/ha) | Plant response rating, Rice ([11]; 250 g ai/ha) | Plant response rating, Ducksalad ([12]; 31 g ai/ha) | Plant response rating, Ducksalad ([12]; 62 g ai/ha) | Crabgrass, Brazil plant response rating ([13]; 16 g ai/ha) | Beggarticks plant response rating ([14]; 16 g ai/ha) | Beggarticks plant response rating ([14]; 31 g ai/ha)
10: Plant response rating, Sandbur [2, 15]
60: Plant response rating, Ryegrass, Italian [5, 15] | Foxtail, Green plant response rating ([8]; 62 g ai/ha) | Foxtail, Giant plant response rating ([10]; 62 g ai/ha)
